Measurements as given in patent US20080032889A1, “6-(2-Fluorophenyl)-Triazolopyrimidines, Method For The Production Thereof, Use Thereof For Controlling Harmful Fungi, And Agents Containing The Same” (BASF AKTIENGESELLSCHAFT, priority 2004, published 2008).

Test system: Botrytis cinerea
Assay: Activity against gray mold caused by Botrytis cinerea on bell pepper plants, protective application
Assay type: in vivo
Conditions: 200 ppm, protective spray, bell pepper "California Wonder", after about 3 days; untreated plants 100% infected
Method: Comparative Experiment 1—Activity Against Gray Mold Caused by Botrytis cinerea, Protective Application Potted bell pepper plants of the cultivar “California Wonder” were sprayed to runoff point with an aqueous suspension having the active compound concentration stated below. The suspension or emulsion had been prepared by dilution with water from a stock solution comprising 5% of active compound, 94% of cyclohexanone and 1% of emulsifier (Tween 20). 2-5 hours after the spray coating had dried on, the plants were dusted with spores of gray mold (Botrytis cinerea). The test plants were then incubated in a humid chamber at temperatures between 20 and 22° C. and at 100% relative atmospheric humidity. After about 3 days, the extent of the pathogen development was determined visually in % infection of the entire leaf area.

CC(C)Nc1c(-c2ccccc2F)c(Cl)nc2ncnn12 [compound A]
infection of the entire leaf area: 90%
